Source: patent US10899758B2, “Inhibitors of the menin-MLL interaction” (Vitae Pharmaceuticals, LLC, priority 2016, dated 2021)

Target: T1, menin/MLL binding (biotinylated wild-type or mutated menin and MLL-AF9 fusion protein) (Homo sapiens, UniProt O00255)
T1 construct: biotinylated (1) wild-type menin or (2) mutated menin (described in Nature (2012) Vol. 482, pp. 542-548); fused on or other part: Biotin attached chemically (Sulfo-NHS-Biotin); no fused second protein is printed for menin
T1 sequence (O00255 1-459 limits assumed): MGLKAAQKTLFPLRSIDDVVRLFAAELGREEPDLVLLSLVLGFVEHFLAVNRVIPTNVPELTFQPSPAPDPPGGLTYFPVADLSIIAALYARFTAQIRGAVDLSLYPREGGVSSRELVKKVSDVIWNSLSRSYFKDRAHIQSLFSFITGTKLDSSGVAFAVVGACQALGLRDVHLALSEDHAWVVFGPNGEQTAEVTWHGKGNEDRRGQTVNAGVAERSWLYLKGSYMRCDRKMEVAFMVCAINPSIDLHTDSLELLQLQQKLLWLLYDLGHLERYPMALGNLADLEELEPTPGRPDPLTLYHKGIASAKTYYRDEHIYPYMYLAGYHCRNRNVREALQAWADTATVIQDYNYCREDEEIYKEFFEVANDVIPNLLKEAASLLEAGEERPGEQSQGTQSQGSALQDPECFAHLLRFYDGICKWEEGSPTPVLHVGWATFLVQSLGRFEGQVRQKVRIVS
Test: Assay 1 (Binding Assay): AlphaLISA menin/MLL binding
Conditions: 5 nM biotinylated menin, MLL-AF9-FLAG lysate
Protocol: Potencies of inhibitor compounds against menin/MLL binding were assessed by AlphaLISA assay using biotinylated (1) wild-type menin or (2) mutated menin (described in Nature (2012) Vol. 482, pp. 542-548) and MLL-AF9 fusion protein bearing a FLAG epitope at its C-terminus. Menin proteins were expressed in E. coli and covalently modified with biotin using EZ-Link™ Sulfo-NHS-Biotin (ThermoFisher Cat. No. 21217) according to manufacturer's protocol. MLL1-1,396 fused to AF91-92 and the C-terminal FLAG peptide was expressed in HEK293 cells and used as a lysate cleared at 21,000×g for 10 min.
Compounds (2 μL of solutions in DMSO) were dispensed in white 96-well half-area plates (Corning Cat. No. 3693) and incubated for 30 min at RT with 5 nM biotinylated menin and appropriate amount of MLL-AF9-FLAG lysate in 40 μL of 50 mM Tris-HCl buffer pH 7.4 containing 5% (v/v) DMSO, 50 mM NaCl, 0.01% (w/v) bovine serum albumin (BSA) and 1 mM DTT. To this incubation mixture, 40 μl of AlphaLISA anti-FLAG acceptor (PerkinElmer Cat. No. AL112C) and streptavidin donor (PerkinElmer Cat. No. 6760002) beads (10 μg/mL each) was added and incubation continued at RT for 60 min. Alpha (amplified luminescent proximity homogeneous assay) signal was measured on an Envision multi-label plate reader at the end of the incubation. All steps were conducted under dim fluorescent light.
These percent inhibition values were regressed against compound concentrations in the assay using four parameter logit non-linear curve fitting (XLFit, IDBS). The IC50 values were derived from the curve fitting as inflection points on the dose-response curves and are set out in Table 14 below.

“5-fluoro-N-isopropyl-N- methyl-2-(3-(2-((1- (methylsulfonyl) piperidin-4-yl)methyl) octahydrocyclopenta [c]pyrrol-5-yl)- 1H-pyrrolo[2,3-c] pyridin-1-yl) benzamide [Example 91]” and `CC(C)N(C)C(=O)c1cc(F)ccc1-n1cc(C2CCCN(Cc3ccc4[nH]c(=O)[nH]c4c3)C2)c2ccncc21` (single isomer, unassigned) [Example 43B, 5-fluoro-N-isopropyl-N-methyl-2-(3-(1-((2-oxo-2,3-dihydro-1H-benzo[d]imidazol-5-yl)methyl)piperidin-3-yl)-1H-pyrrolo[2,3-c]pyridin-1-yl)benzamide] cannot be ordered by IC50: under 100 nM for the first, under 100 nM for the second.

For `CC(C)N(C)C(=O)c1cc(F)ccc1-n1cc(C2CCC(O)CC2)c2ccncc21` (single isomer, unassigned) [Example 53, 5-fluoro-2-(3-(4-hydroxycyclohexyl)-1H-pyrrolo[2,3-c]pyridin-1-yl)-N-isopropyl-N-methylbenzamide], the IC50 was at least 1000 nM.
Going from `CC(C)N(C)C(=O)c1cc(F)ccc1-n1cc(C2CCC(O)CC2)c2ccncc21` (single isomer, unassigned) [Example 53A, 5-fluoro-2-(3-(4-hydroxycyclohexyl)-1H-pyrrolo[2,3-c]pyridin-1-yl)-N-isopropyl-N-methylbenzamide] to `CC(C)N(C)C(=O)c1cc(F)ccc1-n1cc(C2CCC(N3CCC(O)C3)CC2)c2ccncc21` (single isomer, unassigned) [Example 95A, 5-fluoro-2-(3-(4-(3-hydroxypyrrolidin-1-yl)cyclohexyl)-1H-pyrrolo[2,3-c]pyridin-1-yl)-N-isopropyl-N-methylbenzamide], the IC50 falls from at least 1000 nM to under 100 nM. The second is the more potent here.

`CC(C)N(C)C(=O)c1cc(F)ccc1-n1cc(C2CCC(N(C)CC3CCC(NS(C)(=O)=O)CC3)CC2)c2ccncc21` (single isomer, unassigned) [Example 128A, 5-fluoro-N-isopropyl-N-methyl-2-(3-(4-(methyl((4-(methylsulfonamido)cyclohexyl)methyl)amino)cyclohexyl)-1H-pyrrolo[2,3-c]pyridin-1-yl)benzamide] and `CC(C)N(C(=O)c1cc(F)ccc1-n1cc(C2CCC(N3CCC4(CC(NS(C)(=O)=O)C4)C3)CC2)c2ccncc21)C(C)C` (single isomer, unassigned) [Example 139, 5-fluoro-N,N-diisopropyl-2-(3-(4-(2-(methylsulfonamido)-6-azaspiro[3.4]octan-6-yl)cyclohexyl)-1H-pyrrolo[2,3-c]pyridin-1-yl)benzamide] cannot be ordered by IC50: under 100 nM for the first, under 100 nM for the second.

`CC(C)N(C(=O)c1cc(F)ccc1-n1cc(C2CCC(N3CCC4(CC(NS(C)(=O)=O)C4)C3)CC2)c2ccncc21)C(C)C` (single isomer, unassigned) [Example 139A, 5-fluoro-N,N-diisopropyl-2-(3-(4-(2-(methylsulfonamido)-6-azaspiro[3.4]octan-6-yl)cyclohexyl)-1H-pyrrolo[2,3-c]pyridin-1-yl)benzamide] and `CC(C)N(C)C(=O)c1cc(F)ccc1-n1cc(C2CCN(C[C@H]3C[C@@H](NS(C)(=O)=O)C3)CC2)c2ccncc21` (stereo in doubt) [Example 92, 5-fluoro-N-isopropyl-N-methyl-2-(3-(1-((cis-3-(methylsulfonamido)cyclobutyl)methyl)piperidin-4-yl)-1H-pyrrolo[2,3-c]pyridin-1-yl)benzamide] cannot be ordered by IC50: under 100 nM for the first, under 100 nM for the second.

First: CC(C)N(C)C(=O)c1cc(F)ccc1-n1cc(C2CCN(Cc3ccc(C(F)(F)F)cc3)CC2)c2ccncc21 [Example 11, 5-fluoro-N-isopropyl-N-methyl-2-(3-(1-(4-(trifluoromethyl)benzyl)piperidin-4-yl)-1H-pyrrolo[2,3-c]pyridin-1-yl)benzamide]
Second: CC(C)N(C)C(=O)c1cc(F)ccc1-n1cc(C2CCN(Cc3ccc(S(C)(=O)=O)cc3)CC2)c2ccncc21 [Example 13, 5-fluoro-N-isopropyl-N-methyl-2-(3-(1-(4-(methylsulfonyl)benzyl)piperidin-4-yl)-1H-pyrrolo[2,3-c]pyridin-1-yl)benzamide]
The IC50 of the first is lower: under 100 nM for the first, 100 to 1000 nM for the second.

First: CC(C)N(C)C(=O)c1cc(F)ccc1-n1cc(C2CCN(C)CC2)c2ccncc21 [Example 17, 5-fluoro-N-isopropyl-N-methyl-2-(3-(1-methylpiperidin-4-yl)-1H-pyrrolo[2,3-c]pyridin-1-yl)benzamide]
Second: CC(=O)Nc1ccc(CN2CCC(c3cn(-c4ccc(F)cc4C(=O)N(C)C(C)C)c4cnccc34)CC2)cc1 [Example 22, 2-(3-(1-(4-acetamidobenzyl)piperidin-4-yl)-1H-pyrrolo[2,3-c]pyridin-1-yl)-5-fluoro-N-isopropyl-N-methylbenzamide]
The IC50 of the first is higher: 100 to 1000 nM for the first, under 100 nM for the second.

`CC(C)N(C)C(=O)c1cc(F)ccc1-n1cc(C2CCN(CCc3cccc(C#N)c3)CC2)c2ccncc21` [Example 25, 2-(3-(1-(3-cyanophenethyl)piperidin-4-yl)-1H-pyrrolo[2,3-c]pyridin-1-yl)-5-fluoro-N-isopropyl-N-methylbenzamide] and `Fc1ccc(CN2CCC(c3cn(-c4ccc(F)cc4OCC4CC4)c4cnccc34)CC2)cc1` [Example 35, 1-(2-(cyclopropylmethoxy)-4-fluorophenyl)-3-(1-(4-fluorobenzyl)piperidin-4-yl)-1H-pyrrolo[2,3-c]pyridine] cannot be ordered by IC50: under 100 nM for the first, under 100 nM for the second.

`Cc1c(CN2CCC(c3cn(-c4ccc(Cl)cc4)c4cnccc34)CC2)ccc2[nH]c(C#N)cc12` [Example 38, 5-((4-(1-(4-chlorophenyl)-1H-pyrrolo[2,3-c]pyridin-3-yl)piperidin-1-yl)methyl)-4-methyl-1H-indole-2-carbonitrile] and `CC(C)CCN1CCC(c2cn(-c3ccc(F)cc3)c3cnccc23)CC1` [Example 39, 1-(4-fluorophenyl)-3-(1-isopentylpiperidin-4-yl)-1H-pyrrolo[2,3-c]pyridine] fall in the same range of IC50: 100 to 1000 nM for the first, 100 to 1000 nM for the second.

`Fc1ccc(-n2cc(C3CCN(CCc4ccccc4)CC3)c3ccncc32)cc1` [Example 40, 1-(4-fluorophenyl)-3-(1-phenethylpiperidin-4-yl)-1H-pyrrolo[2,3-c]pyridine] and `CC(C)N(C)C(=O)c1cc(F)ccc1-n1cc(C2CCCNCC2)c2ccncc21` (stereo not shown) [Example 41A, 2-(3-(azepan-4-yl)-1H-pyrrolo[2,3-c]pyridin-1-yl)-5-fluoro-N-isopropyl-N-methylbenzamide] fall in the same range of IC50: 100 to 1000 nM for the first, 100 to 1000 nM for the second.

`CC(C)N(C)C(=O)c1cc(F)ccc1-n1cc(C2CCC3(CC2)CNC3)c2ccncc21` [Example 51, 2-(3-(2-azaspiro[3.5]nonan-7-yl)-1H-pyrrolo[2,3-c]pyridin-1-yl)-5-fluoro-N-isopropyl-N-methylbenzamide] and `CC(C)N(C)C(=O)c1cc(F)ccc1-n1cc(C2CCC3(CC2)CN(C)C3)c2ccncc21` [Example 51A, 5-fluoro-N-isopropyl-N-methyl-2-(3-(2-methyl-2-azaspiro[3.5]nonan-7-yl)-1H-pyrrolo[2,3-c]pyridin-1-yl)benzamide] fall in the same range of IC50: 100 to 1000 nM for the first, 100 to 1000 nM for the second.

`CC(C)N(C)C(=O)c1cc(F)ccc1-n1cc(-c2ccc3c(c2)CCN(C)C3)c2ccncc21` [Example 52, 5-fluoro-N-isopropyl-N-methyl-2-(3-(2-methyl-1,2,3,4-tetrahydroisoquinolin-6-yl)-1H-pyrrolo[2,3-c]pyridin-1-yl)benzamide] and `CC(C)N(C)C(=O)c1cc(F)ccc1-n1cc(C2CCC(Oc3ccccc3)CC2)c2ccncc21` (stereo not shown) [Example 59, 5-fluoro-N-isopropyl-N-methyl-2-(3-(4-phenoxycyclohexyl)-1H-pyrrolo[2,3-c]pyridin-1-yl)benzamide] fall in the same range of IC50: 100 to 1000 nM for the first, 100 to 1000 nM for the second.

First: Cc1c(CN2CCC(c3cn(-c4ccc(F)cc4C(=O)N(C)C)c4cncnc34)CC2)ccc2[nH]c(C#N)cc12 [Example 64, 2-(7-(1-((2-cyano-4-methyl-1H-indol-5-yl)methyl)piperidin-4-yl)-5H-pyrrolo[3,2-d]pyrimidin-5-yl)-5-fluoro-N,N-dimethylbenzamide]
Second: Fc1ccc(-n2cc(C3CCN(CC4CCOCC4)CC3)c3ncncc32)cc1 [Example 65, 5-(4-fluorophenyl)-7-(1-((tetrahydro-2H-pyran-4-yl)methyl)piperidin-4-yl)-5H-pyrrolo[3,2-d]pyrimidine]
The IC50 of the first is lower: under 100 nM for the first, at least 1000 nM for the second. The first is the more potent here.
